Data set [1] deals with eIF2α phosphorylation in P. falciparum. Description: Western blot for phosphorylated-eIF2α. It counts as cell-based, Plasmodium falciparum. The procedure: Synchronous ring-stage YRScyt conditional knockdown line and the aptamer-regulatable control
700 the drug plate. Lowest drug treatment and a lethal dose of chloroquine (200 nM) served as reference
Two guide RNAs (gRNA1: […] and gRNA2:
Ring-stage P. falciparum parasites (Dd2 strain) at 10%
Using a modification of a published procedure (14), the
722 cells were labelled with O-propargyl-puromycin (OPP; 4 µM) for 1 h, washed 3x (PBS +3% serum) and
Flow cytometry was performed
730 hematocrit and 5% parasitemia. The RBC pellet was washed 3 x in PBS + cOmplete. Cells were centrifuged
The wash with PBS + cOmplete and
The pellet was resuspended in Bolt LDS sample
The samples were vortexed for 10 min at room temperature.
Secondary antibodies: goat
740 anti-rabbit IgG-peroxidase (Sigma-Aldrich-A0545; 1:20 000), goat anti-mouse IgG-peroxidase (Chemicon-
Chemiluminescence was detected using the Bio-Rad ChemiDocTM MP imaging
For the human mature YRS construct,
The YRS sequences were codon optimized for E. coli,
The vector was transformed into
PfYRS, PfYRSS234C and HsYRS were induced
Cell pellets were resuspended in 40 mL lysis
Cells were lysed by sonication (Microtip, QSonica)
The supernatant was applied to a 5
757 mL HisTrap HP column (GE Healthcare) and washed with 50 mL binding buffer containing 50 mM Tris-
His-YRS was eluted using a 0-500 mM
The eluted His-YRS was dialyzed overnight at 4°C
760 against 50 mM Tris-HCl, pH 8, 500 mM NaCl, 30 mM imidazole, 1 mM TCEP with the addition of His-
Cleaved His tags from His-YRS and TEV
YRS was further purified by gel filtration using a HiLoad 16/600 Superdex 200 column (GE
Background: Immunoblotting shows a protein as a band on a membrane.

Data set [2] has as its system P. falciparum 3D7 clones selected with ML901 (D4, F7, B11). As to the kind of experiment: In vitro evolved ML901-resistant 3D7 clones, IC50_72h. Type of data set: cell-based, Plasmodium falciparum. The protocol: 537 Screening of nucleoside sulfamates for inhibition of the growth of cultures of P. falciparum (3D7).
538 High throughput screening of compounds from the Takeda library was performed by SCYNEXIS, Inc.
539 Jersey City, NJ, USA. Synchronized (5% sorbitol) ring stage parasites (3D7 strain; 1.5% haematocrit; 0.1
540 – 0.5% starting parasitemia) were incubated in 96-well plates, in triplicate, diluted in DMSO, for 72 h in
541 RPMI 1640 supplemented with 10% human serum, 5% CO2, 5% O2, 90% N2. Infected RBCs were lysed
542 with 10 mM Tris HCl, 5 mM EDTA, 0.008% saponin, 0.08% Triton X-100, pH 7.5, containing SYBR
543 Green. Following incubation for 15-60 min, fluorescence signal was assessed. Sigmoidal dose response
544 curves were generated and the IC50 values determined using CLfit curve fitting software from IDBS […]
549 stage parasites (3D7 strain (43)) were incubated with the inhibitors for 72 h and viability was assessed in […]
638 precipitated with acetonitrile and the remaining compound was assessed by LC-MS/MS in the selected reaction […]
(§1) 648 0.5% formic acid in methanol and the supernatants were analysed by positive ion electrospray LC-MS for
(§2) 649 the administered compound. Non-compartmental pharmacokinetic parameters were calculated from […]
(§3) 660 IGM Genomics Center on the Illumina HiSeq 2500 in RapidRun mode to generate 100bp paired-end reads.

A short description of a further data set: Solubility. It counts as physicochemical.
The conditions of data set [3]: SCID, mouse, in vivo, ip, 50 mg/kg. The protocol:
625 of 50 mg/kg of compound on day 3 post-infection and measuring the effect on blood parasitemia by
626 microscopic analysis of Giemsa-stained blood smears (on days 3, 4, 5, 6 and 7 post-infection). Mice were
630 Human biological samples were sourced ethically; and their research use was in accord with the terms of
631 the informed consent. All animal studies were ethically reviewed and carried out in accredited facilities in
632 accordance with the relevant country’s directives and the institution’s Policy on the Care, Welfare and
633 Treatment of Animals.
635 Plasma exposure in infected mouse model
637 blood samples (20 μL) were obtained at time points up to 24 hours after the first administration. Protein was
638 precipitated with acetonitrile and the remaining compound was assessed by LC-MS/MS in the selected reaction
641 Rat pharmacokinetics (PK) analyses
642 Sprague-Dawley rats (11 weeks old) were sourced from Hilltop Lab Animals, Inc (Scottdale, Pennsylvania,
643 USA). ML901 was formulated in EtOH: DMAC: PEG400: H2O at 1:1:4:4 (v/v) and 10% captisol in 50 […]
as §1, §2, §3

With `Nc1ncnc2c1c(OC(F)F)nn2[C@@H]1O[C@H](COS(N)(=O)=O)[C@@H](O)[C@H]1O` [ML901], the eIF2α phosphorylation result is given as “does not result in eIF2α phosphorylation” in data set [1] (eIK1 knockout parasites) and “triggers eIF2α phosphorylation” in data set [1] (wildtype P. falciparum cultures). In addition, the “reduced sensitivity of selected parasites” value in data set [2] (3D7 line under increasing compound concentrations over 4 months, versus parent) is reported as 10 fold. For the same compound, the IC50 in data set [2] (Plasmodium falciparum, 3D7, read-out: IC50_72h, ML901-selected resistant clones) amounted to 28 nM. Further, the solubility (in general, the dissolved amount per volume that the medium holds) in “Solubility” was over 200 µM. For the same compound, the “exposure (area under the curve)” value in data set [3] turned out to be 580 µM·h.

These data come from PMC7613620, “Reaction hijacking of tyrosine tRNA synthetase as a whole-of-life-cycle antimalarial strategy” (Science (New York, N.Y.), 2022).
